Each structure is given as a SMILES string.

Assay [1] concerns the target T1, thrombin (Homo sapiens, UniProt P00734).
T1 construct: residues in the termini of the light chain; and in the autolysis loop and C-terminus of the heavy chain; purchased Chemo-Sero-Therapeutic Research Institute (Kaketsuken, Japan), as a gift, not bought
In words: Cleavage of peptide by thrombin (RP-HPLC, ESI-MS). The format is biochemical. The following applies: peptide incubated with thrombin (30:1). As to the method: A. Evaluation of avathrin cleavage by thrombin by HPLC chromatograms. Avathrin (150 μM) was incubated with thrombin (5 μM) for various times and the reaction mixtures were separated using RP-HPLC; the masses of the cleavage products were analyzed with ESI-MS. At 0 min (upper panel), a single peak corresponding to full length avathrin (mass 3139 Da) was identified. At 120 min (middle panel), two new peaks corresponding to N-terminal cleavage product (^1[…]^10 of SEQ ID NO: 1; mass 982 Da) and C-terminal cleavage product ([…] (SEQ ID NO: 4); mass 2176 Da) were identified in addition to avathrin peak. At 600 min (lower panel), two peaks corresponding to the N- and C-terminal cleaved products were observed while avathrin peak was not observed, indicating complete cleavage. B. Time-dependent cleavage of avathrin by thrombin. Relative percentages of avathrin, its N- and C-terminal cleavage products were quantified by calculating areas under the curve. Each data point is the mean±S.D. of at least three independent experiments. C. Effect of thrombin cleavage on inhibitory properties of avathrin. Avathrin was incubated with thrombin (0.81 nM) for up to 36 h, and assayed at different time points for its ability to inhibit thrombin amidolytic activity on the chromogenic substrate S2238. […]
Thrombin amidolytic activity assays for all peptides were performed in 96-wells microtiter plates in 50 mM Tris buffer (pH 7.4) containing 100 mM NaCl and 1 mg/ml bovine serum albumin. […] The rates of formation of p-nitroaniline were followed by measuring the absorbance at 405 nm for 10 min with a Tecan InfinitePro M200 microplate reader from Tecan (Männedorf, Switzerland). […] To measure the inhibitory constants, different concentrations of S2238 were used and the residual velocities were determined using the Morrison's tight binding equation. Inhibition of thrombin fibrinogenolytic activity of peptides were tested by measuring absorbance at 650 nm using a Sunrise microplate reader from Tecan (Männedorf, Switzerland) as described previously [Koh C Y, et al., J Biol Chem 282: 29101-13 (2007)]. […] Effects of avathrin on the amidolytic activities of these serine proteases were determined using respective chromogenic substrates. […] After different incubation times, reactions were quenched with 1% TFA (pH 1.8) and loaded onto a Jupiter Proteo column (4 μm, 90 Å, 100×1.0 mm) attached to a Dionex nano-HPLC system from Thermo Fisher Scientific (Waltham, Mass., USA) and eluted using an acetonitrile gradient with 0.05% TFA and 99.95% MilliQ water as eluent A and 0.05% TFA, 19.95% MilliQ water and 80% ACN as eluent B. Masses of all peaks were measured to identify cleavage products, which were subsequently quantified by integrating the peaks and calculating the area under the curves. […]

In assay [2] the test system is blood. In words: Anti-coagulation effect of peptides in blood tubes (visual clot formation). As to conditions: room temperature. Further details: species or system human (healthy volunteers). As to the method:
(§1) Individual peptides are dissolved in phosphate buffered saline to prepare 10× peptide solutions (ie. concentrations of peptides are 10 times higher than the final concentrations at which they are to be tested). 0.3 ml of the 10× peptide solutions are placed in blood tubes without any additives. Blood was drawn from healthy volunteers using syringes and immediately transferred to a 50 ml conical centrifuge tube (Falcon tube) before pipetting 2.7 ml of the blood into blood tubes with peptide solutions. Final concentrations of peptides are as stated in Table 5 and 6.
Blood tubes with various peptides at different concentrations were left standing at room temperature until tested at designated times. At different time points, tubes were inverted several times and visually inspected for insoluble materials as indications of clot formation.

For assay [3], the system named is platelets (ADP-induced platelet aggregation). As to the kind of experiment: Preservation of platelet function in blood tubes (Multiplate, ADP-induced platelet aggregation). As to conditions: ADP agonist. Format: cell-based, human (healthy volunteers). As for the experimental part:
as §1
Blood tubes with various peptides at different concentrations were left standing at room temperature until tested at designated times. At different time points, tubes were inverted several times and blood samples were taken out for platelet aggregation tests using a Multiplate® Platelet aggregometer with adenosine diphosphate (ADP) as agonist according to manufacturer's recommended protocols.

As for `CC[C@H](C)[C@H](NC(=O)[C@H](C)NC(=O)[C@H](CCC(=O)O)NC(=O)[C@H](Cc1ccccc1)NC(=O)[C@H](CC(=O)O)NC(=O)[C@H](Cc1ccccc1)NC(=O)[C@@H]1CCCN1C(=O)[C@@H]1CCCN1C(=O)[C@H](C)NC(=O)[C@@H](NC(=O)[C@H](CCCCN)NC(=O)[C@H](Cc1c[nH]cn1)NC(=O)[C@H](CCSC)NC(=O)[C@H](CCCCN)NC(=O)[C@@H]1CCCN1C(=O)[C@H](CCC(=O)O)NC(=O)[C@H](C)NC(=O)[C@@H](NC(=O)[C@H](CC(=O)O)NC(=O)CNC(=O)[C@H](CCC(N)=O)NC(=O)[C@H](CC(=O)O)NC(=O)[C@@H](N)CO)C(C)C)[C@@H](C)O)C(=O)N1CCC[C@H]1C(=O)N[C@@H](CCC(=O)O)C(=O)N[C@@H](CCC(=O)O)C(=O)N[C@@H](Cc1ccc(O)cc1)C(=O)N[C@@H](CC(C)C)C(=O)N[C@@H](CC(=O)O)C(=O)N[C@@H](CC(=O)O)C(=O)N[C@@H](CCC(=O)O)C(=O)N[C@@H](CO)C(=O)O` [Variegin, reference compound], in assay [1], the “time to complete cleavage by thrombin” value was determined as 4 h. Also, the entries for the “Time to observe clot formation” value in assay [2] (final concentration 75 micromolar), in assay [2] (final concentration 150 micromolar) and in assay [2] (final concentration 300 micromolar) were 46 h, 52 to 66 h and 52 to 66 h, respectively. The “Multiplate AUC (U)” value amounted to 65.2 U in assay [3] (1.5 h, peptide 150 μM); 52.3 U in assay [3] (1.5 h, peptide 300 μM); 48.6 U in assay [3] (4 h, peptide 150 μM); 33.9 U in assay [3] (4 h, peptide 300 μM); 41.9 U in assay [3] (24 h, peptide 150 μM); 40.5 U in assay [3] (24 h, peptide 300 μM). Besides, the “Multiplate AUC (U)” value in assay [3] (48 h, peptide 300 μM) is reported as 18.3 U.

These data come from patent US10906946B2, “Thrombin inhibitors” (priority 2015, dated 2021).
